Laboratory results: PubChem BioAssay (NCI)
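GI50 = concentration required for 50% inhibition of growth. TGI is the concentration that stops growth completely.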

Experiments:
Test in all cases: NCI tumour cell line growth inhibition, 384-well format
[1] = tested on: PC-3 prostate
[2] = tested on: OVCAR-8 ovarian
[3] = tested on: SF-295 CNS
[4] = tested on: UACC-62 melanoma
[5] = tested on: EKVX NSCLC
[6] = tested on: HCT-116 colon
[7] = tested on: HS 578T breast
[8] = tested on: RPMI-8226 leukemia
[9] = tested on: HOP-62 NSCLC
[10] = tested on: MDA-MB-468 breast
[11] = tested on: SF-268 CNS
[12] = tested on: SW-620 colon
[13] = tested on: OVCAR-3 ovarian
[14] = tested on: SK-MEL-5 melanoma
[15] = tested on: U251 glioblastoma
[16] = tested on: HOP-92 NSCLC
[17] = tested on: NCI/ADR-RES ovarian
[18] = tested on: NCI-H226 lung
[19] = tested on: MDA-MB-435 melanoma
[20] = tested on: CAKI-1 renal
[21] = tested on: SN12C renal
[22] = tested on: UACC-257 melanoma
[23] = tested on: MDA-MB-231 breast
[24] = tested on: T-47D breast
[25] = tested on: SK-OV-3 ovarian
[26] = tested on: SF-539 CNS
[27] = tested on: COLO 205 colon
[28] = tested on: BT-549 breast
[29] = tested on: ACHN renal
[30] = tested on: SNB-19 CNS
[31] = tested on: UO-31 renal
[32] = tested on: NCI-H522 lung
[33] = tested on: MCF7 breast
[34] = tested on: HCC-2998 colon
[35] = tested on: OVCAR-4 ovarian
[36] = tested on: LOX IMVI melanoma
[37] = tested on: SK-MEL-28 melanoma
[38] = tested on: CCRF-CEM leukemia
[39] = tested on: TK-10 renal
[40] = tested on: M14 melanoma
[41] = tested on: NCI-H23 lung
[42] = tested on: IGROV1 ovarian
[43] = tested on: KM12 colon
[44] = tested on: HCT-15 colon
[45] = tested on: HL-60(TB) leukemia
[46] = tested on: OVCAR-5 ovarian
[47] = tested on: MALME-3M melanoma
[48] = tested on: 786-0 renal
[49] = tested on: K-562 leukemia
[50] = tested on: SNB-75 CNS
[51] = tested on: HT29 colon
[52] = tested on: RXF 393 renal
[53] = tested on: DU-145 prostate
[54] = tested on: MOLT-4 leukemia
[55] = tested on: A498 renal
[56] = tested on: NCI-H460 NSCLC
[57] = tested on: NCI-H322M lung
[58] = tested on: A549 NSCLC

## C1=C/COCc2cc(ccc2OCCN2CCCC2)Nc2nccc(n2)-c2ccc(o2)COC/1
[1]
  GI50: 1490 nM
  TGI: 4880 nM
[2]
  GI50: 1680 nM
  TGI: 4270 nM
[3]
  GI50: 2050 nM
  TGI: 4490 nM
[4]
  GI50: 798 nM
  TGI: 2060 nM
[5]
  GI50: 1490 nM
  TGI: 3370 nM
[6]
  GI50: 852 nM
  TGI: 10400 nM
[7]
  GI50: 1540 nM
  TGI: 2970 nM
[8]
  GI50: 1790 nM
  TGI: 3220 nM
[9]
  GI50: 1200 nM
  TGI: 2960 nM
[10]
  GI50: 1140 nM
  TGI: 2370 nM
[11]
  GI50: 256 nM
  TGI: 964 nM
[12]
  GI50: 2440 nM
  TGI: 8150 nM
[13]
  GI50: 1330 nM
  TGI: 3230 nM
[14]
  GI50: 1030 nM
  TGI: 2260 nM
[15]
  GI50: 1920 nM
  TGI: 4790 nM
[16]
  GI50: 1570 nM
  TGI: 5460 nM
[17]
  GI50: 1970 nM
  TGI: 4000 nM
[18]
  GI50: 1210 nM
  TGI: 4180 nM
[19]
  GI50: 1470 nM
  TGI: 4090 nM
[20]
  GI50: 452 nM
  TGI: 2340 nM
[21]
  GI50: 587 nM
  TGI: 1890 nM
[22]
  GI50: 1460 nM
  TGI: 2800 nM
[23]
  GI50: 1840 nM
  TGI: 9870 nM
[24]
  GI50: 613 nM
  TGI: 2430 nM
[25]
  GI50: 758 nM
  TGI: 2880 nM
[26]
  GI50: 1610 nM
  TGI: 3000 nM
[27]
  GI50: 1480 nM
  TGI: 3920 nM
[28]
  GI50: 1720 nM
  TGI: 3210 nM
[29]
  GI50: 672 nM
  TGI: 11400 nM
[30]
  GI50: 2580 nM
  TGI: 10600 nM
[31]
  GI50: 1640 nM
  TGI: 3850 nM
[32]
  GI50: 1090 nM
  TGI: 2400 nM
[33]
  GI50: 563 nM
  TGI: 1980 nM
[34]
  GI50: 1270 nM
  TGI: 2830 nM
[35]
  GI50: 2000 nM
  TGI: 5100 nM
[36]
  GI50: 892 nM
  TGI: 2180 nM
[37]
  GI50: 1430 nM
  TGI: 3000 nM
[38]
  GI50: 1530 nM
  TGI: 2920 nM
[39]
  GI50: 2390 nM
  TGI: 9400 nM
[40]
  GI50: 838 nM
  TGI: 3050 nM
[41]
  GI50: 879 nM
  TGI: 2190 nM
[42]
  GI50: 433 nM
  TGI: 1900 nM
[43]
  GI50: 325 nM
  TGI: 1920 nM
[44]
  GI50: 950 nM
  TGI: 3230 nM
[45]
  GI50: 479 nM
  TGI: 1680 nM
[46]
  GI50: 590 nM
  TGI: 4100 nM
[47]
  GI50: 1060 nM
  TGI: 2270 nM
[48]
  GI50: 1520 nM
  TGI: 4970 nM
[49]
  GI50: 1390 nM
  TGI: 4120 nM
[50]
  GI50: 1060 nM
  TGI: 2270 nM
[51]
  GI50: 1290 nM
  TGI: 2820 nM
[52]
  GI50: 1250 nM
  TGI: 2570 nM
[53]
  GI50: 1560 nM
  TGI: 10500 nM
[54]
  GI50: 1020 nM
  TGI: 2190 nM
[55]
  GI50: 710 nM
  TGI: 4220 nM
[56]
  GI50: 792 nM
  TGI: 2270 nM
[57]
  GI50: 1320 nM
  TGI: 3510 nM
[58]
  GI50: 1250 nM
  TGI: 4060 nM
